# Data reported in US7550426B2, “Acetylated therapeutic procytotoxins” (GHC Research Development Corporation, priority 2005, dated 2009).
# Assays:
# nucleated cells = conditions: high concentrations; cited from earlier work
# LNCaP tumor = assay: Plasma PSA levels in mouse model for human prostate cancer (LNCaP tumor), intraperitoneal treatment; format: in vivo; conditions: nude mice with LNCaP tumor; 200 μg peptide per injection, intraperitoneally, twice per week; PSA measured after three, five and seven weeks
# Description: LNCaP cells lot #3475262 (Catalog # CRL-1740) are received from ATCC, quickly thawed at 37° C. and placed in culture immediately. Cells are cultured in RPMI media (supplemented with 10% FBS, 50,000 units of Penicillin and 50,000 ug Streptomycin) and grown at 37° C. in the presence of 5% CO2. Cells are passed when approximately 80% confluent until there are enough cells to do the in vivo studies.
# (§1) 20 nude mice are injected subcutaneously (right flank) with 0.5 ml of a 4 million cell/ml suspension (50% PBS 50% high concentration matrigel). Each mouse receives approximately 2 million cells. The mice are male, approximately 12 weeks of age and of the nude BalbC background.
# (§2) 5 days following LNCaP tumor inoculation, mice are injected with an acetylated γ-glutamate-masked amoebapore, a non-acetylated γ-glutamate-masked amoebapore, and a control. Six control mice are injected with 200 μl of PBS and the remaining 14 mice are injected with 200 μl of a 1 mg/ml solution of either the acetylated or non-acetylated γ-glutamate-masked amoebapore peptide (i.e., 200 μg peptide per injection). Mice are injected intraperitoneally, twice per week. PSA levels are measured after three, five, and seven weeks of treatment. Lower PSA levels relative to control provide an objective indication that the procytotoxin is converted to its cytotoxic form and is able to lyse a target cell.
# [1] = Mouse weight after 7 weeks of intraperitoneal injection in mouse model for prostate cancer; format: in vivo; conditions: nude mice with LNCaP tumor; following 7 weeks of intraperitoneal injection; compared to control animals
# Description: as §1, §2
# Additionally, mice are weighed following 7 weeks of intraperitoneal injection of a non-acetylated procytotoxin or an acetylated procytoxin in a mouse model for prostate cancer. […] Cachexia is a profound and marked state of constitutional disorder, representing general ill health. It is sometimes associated with an emaciated condition, such as cancerous cachexia seen in cases of a malignant tumor. […]
# LNCaP cells = assay: In vitro lysis of LNCaP cells measured by LDH release; format: cell-based, human; conditions: concentration 160 μM
# Description: Prior to tumor injection, in vitro studies are conducted to check the activity of the acetylated and non-acetylated procytotoxin, and to check the activity of the LNCaP cells for their ability to secrete PSA. Peptide activity is checked by a LDH Cytotoxicity Detection Kit (Roche).
# Non-acetylated γ-glutamate-masked amoebapore (a modified cytotoxin comprising one or more γ-linked glutamate residues linked via a peptide bond to the epsilon amino group of at least one lysine, preferably the C-terminal-most lysine), and acetylated γ-glutamate-masked amoebapore are compared in vitro for their ability to lyse LNCaP cells, as measured by percent lactic acid dehydrogenase (LDH) release.
# [2] = target: prostate specific membrane antigen (human) (UniProt Q04609)
compound,measurement,setting,value
"NH2-Gly-Phe-Ile-Ala-Thr-Leu-Cys-Thr-Lys-Val-Leu-Asp-Phe-Gly-Ile-Asp-Lys-Leu-Ile-Gln-Leu-Ile-Glu-Asp-Lys-CONH2 (H-GFIATLCTKVLDFGIDKLIQLIEDK-NH2; listed as Entamoeba histolytica) [Amoebapore Helix 3, parent cytolytic peptide from Entamoeba histolytica amoebapore, third helix]",concentrations with cytolytic activity for nucleated cells,nucleated cells,10 to 100 µM
CC(=O)NC(CCC(=O)NC(CCC(=O)NCCCCC(N)C(N)=O)C(=O)O)C(=O)O (stereo not drawn) [Acetylated procytotoxin],plasma PSA levels compared to control,LNCaP tumor,lowered PSA levels to a greater extent
same,weight loss,[1],experienced the least weight loss
same,% LDH Release,LNCaP cells,29.94%
non-acetylated γ-glutamate-masked amoebapore (peptide),% LDH Release (% LDH Release),[2],38.5
acetylated γ-glutamate-masked amoebapore (peptide),% LDH Release (% LDH Release),[2],29.9
